Experimental data reported in PMC4475420 (Chemistry & biology, 2015).
Blank lines part the entries; values can stand above or below the compound they belong to.

Legend:
Assay in all cases: PK/LDH coupled NADH oxidation assay, […] nm
Type in all cases: biochemical
[1] = biological target: T1, OtsA(Sco) (Streptomyces coelicolor, UniProt Q9KXV1); conditions: 5 mM MgCl2, Tris-HCl pH 7.5
T1 sequence (Q9KXV1 1-462): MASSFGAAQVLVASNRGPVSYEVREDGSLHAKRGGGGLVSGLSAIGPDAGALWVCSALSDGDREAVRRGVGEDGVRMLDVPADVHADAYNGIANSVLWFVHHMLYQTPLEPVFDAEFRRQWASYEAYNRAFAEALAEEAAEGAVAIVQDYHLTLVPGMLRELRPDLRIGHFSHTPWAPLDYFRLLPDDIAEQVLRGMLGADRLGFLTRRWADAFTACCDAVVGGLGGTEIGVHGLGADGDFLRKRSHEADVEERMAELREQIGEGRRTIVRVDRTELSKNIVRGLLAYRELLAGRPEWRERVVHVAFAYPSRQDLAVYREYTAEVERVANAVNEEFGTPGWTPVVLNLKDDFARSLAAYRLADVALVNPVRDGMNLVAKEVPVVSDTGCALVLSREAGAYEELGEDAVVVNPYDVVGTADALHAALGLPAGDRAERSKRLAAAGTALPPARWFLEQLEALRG

[2] = system: Chimera-2; conditions: 5 mM MgCl2, Tris-HCl pH 7.5
[3] = biological target: VldE (Streptomyces hygroscopicus, UniProt Q15JG1); conditions: 2 mM validamine 7-phosphate, 5 mM MgCl2, Tris-HCl pH 7.5
VldE, sequence (Q15JG1 whole entry): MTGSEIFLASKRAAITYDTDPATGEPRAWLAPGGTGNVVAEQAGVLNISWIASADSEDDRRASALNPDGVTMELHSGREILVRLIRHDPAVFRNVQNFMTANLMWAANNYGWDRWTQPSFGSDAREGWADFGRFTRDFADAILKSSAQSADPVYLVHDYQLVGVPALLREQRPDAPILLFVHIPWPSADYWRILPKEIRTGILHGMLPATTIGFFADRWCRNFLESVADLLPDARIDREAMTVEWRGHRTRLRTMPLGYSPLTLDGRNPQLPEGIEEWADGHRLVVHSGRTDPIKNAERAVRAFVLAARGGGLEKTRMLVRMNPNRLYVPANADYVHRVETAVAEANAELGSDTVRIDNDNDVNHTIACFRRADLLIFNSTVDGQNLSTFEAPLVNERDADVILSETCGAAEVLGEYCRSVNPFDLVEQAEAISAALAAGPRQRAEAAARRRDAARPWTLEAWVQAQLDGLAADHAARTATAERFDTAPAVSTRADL

[4] = system: Chimera-1; conditions: 5 mM MgCl2, Tris-HCl pH 7.5

- Km ([1]; 2 mM glucose 6-phosphate): > 4 mM
SMILES: Nc1ccn([C@@H]2O[C@H](COP(=O)(O)OP(=O)(O)O[C@H]3O[C@H](CO)[C@@H](O)[C@H](O)[C@H]3O)[C@@H](O)[C@H]2O)c(=O)n1 [CDP-glucose]

- Km ([2]; 2 mM glucose 6-phosphate): 3.56 ± 0.38 mM
- Km [3]: > 2.2 mM
- Km ([4]; 2 mM validamine 7-phosphate): 1.1 ± 0.07 mM
SMILES: Nc1nc2c(ncn2[C@@H]2O[C@H](COP(=O)(O)OP(=O)(O)O[C@H]3O[C@H](CO)[C@@H](O)[C@H](O)[C@H]3O)[C@@H](O)[C@H]2O)c(=O)[nH]1 [GDP-glucose]

- Km ([4]; 2 mM validamine 7-phosphate): > 10 mM
SMILES: Nc1nc2c(ncn2[C@@H]2O[C@H](COP(=O)(O)OP(=O)(O)O[C@H]3C=C(CO)[C@@H](O)[C@H](O)[C@H]3O)[C@@H](O)[C@H]2O)c(=O)[nH]1 [GDP-valienol]

- Km ([2]; 2 mM GDP-glucose): 6.44 ± 0.95 mM
SMILES: O=P(O)(O)OC[C@H]1OC(O)[C@H](O)[C@@H](O)[C@@H]1O (stereo partly drawn) [glucose 6-phosphate]

- Km ([4]; 2 mM GDP-glucose): 0.975 ± 0.1 mM
SMILES: N[C@H]1C[C@H](COP(=O)(O)O)[C@@H](O)[C@H](O)[C@H]1O [validamine 7-phosphate]

- Km ([1]; 2 mM GDP-glucose): > 10 mM
- Km ([2]; 2 mM GDP-glucose): 4.95 ± 0.7 mM
SMILES: O=P(O)(O)OC[C@H]1C[C@H](O)[C@H](O)[C@@H](O)[C@@H]1O [validol 7-phosphate]
